From PMC9503212, “A High-Affinity ^64Cu-Labeled Ligand for PET Imaging of Hepsin: Design, Synthesis, and Characterization” (Pharmaceuticals, 2022)

Tests used:
[1] = target: T1, Recombinant hepsin (Homo sapiens, UniProt P05981); assay: In vitro binding assay (fluorogenic BOC–QAR–AMC substrate), hepsin; format: biochemical; conditions: for Ki: 0.3 nM enzyme, 150 μM substrate, Ki by Cheng and Prusoff from IC50, three determinations; for Matriptase/ Hepsin (hepsin selectivity, ratio of Ki values): ratio of Ki values for matriptase and hepsin
T1 construct: purchased R&D Systems
T1 sequence (P05981 163-417 limits assumed): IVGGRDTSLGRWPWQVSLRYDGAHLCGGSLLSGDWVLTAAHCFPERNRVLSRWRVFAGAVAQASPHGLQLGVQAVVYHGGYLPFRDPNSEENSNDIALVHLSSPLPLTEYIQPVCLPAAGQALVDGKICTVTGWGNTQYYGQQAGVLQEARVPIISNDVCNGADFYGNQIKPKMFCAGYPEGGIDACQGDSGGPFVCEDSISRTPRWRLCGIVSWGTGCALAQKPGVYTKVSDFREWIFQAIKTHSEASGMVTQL
T1 sequence (P05981 1-162 partner limits assumed): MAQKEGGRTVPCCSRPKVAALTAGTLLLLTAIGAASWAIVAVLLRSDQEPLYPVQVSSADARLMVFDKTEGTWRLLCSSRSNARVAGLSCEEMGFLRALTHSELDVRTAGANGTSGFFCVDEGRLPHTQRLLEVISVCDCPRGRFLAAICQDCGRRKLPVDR
Method: Recombinant hepsin (R&D Systems, Minneapolis, MN, USA) was diluted 5.5-fold in TNC buffer (25 mM Tris-HCl, 150 mM NaCl, 5 mM CaCl2, 0.01% Triton X-100, pH 8) and incubated at 37 °C. After 24 h, hepsin was diluted in glycerol to 50%. The stock solution (1.2 μM) was stored at −81 °C and diluted in TNC buffer before use.
(§1) Ligands (0.03 nM–30 µM) were diluted in DMSO (2% final concentration) and mixed with either activated hepsin or matriptase in 96-well plates. The final assay concentration for both hepsin and matriptase in TNC buffer was 0.3 nM. After an incubation period of 30 min at 37 °C, BOC–QAR–AMC substrate (R&D Systems) was added to hepsin and matriptase assay mixtures. The final substrate concentration was 150 μM in a final reaction volume of 100 μL.
(§2) Changes in fluorescence (excitation at 380 nm and emission at 460 nm) were measured at room temperature over 2 h in a BioTek Synergy two-plate reader (Agilent Technologies). Using the GraphPad Prism version 6.02 software (San Diego, CA, USA), a non-linear curve fit was performed to determine the inhibitor IC50s from a plot of the mean reaction velocity versus the inhibitor concentration. The IC50 values represent the average of three experimental determinations (Figure S1). Ki values were calculated using the Cheng and Prusoff equation (Ki = IC50/(1 + [S]/Km)).

[2] = target: T2, matriptase (Homo sapiens, UniProt Q9Y5Y6); assay: In vitro binding assay (fluorogenic BOC–QAR–AMC substrate), matriptase; format: biochemical; conditions: 0.3 nM enzyme, 150 μM substrate, Ki by Cheng and Prusoff from IC50, three determinations
T2 sequence (Q9Y5Y6 1-855): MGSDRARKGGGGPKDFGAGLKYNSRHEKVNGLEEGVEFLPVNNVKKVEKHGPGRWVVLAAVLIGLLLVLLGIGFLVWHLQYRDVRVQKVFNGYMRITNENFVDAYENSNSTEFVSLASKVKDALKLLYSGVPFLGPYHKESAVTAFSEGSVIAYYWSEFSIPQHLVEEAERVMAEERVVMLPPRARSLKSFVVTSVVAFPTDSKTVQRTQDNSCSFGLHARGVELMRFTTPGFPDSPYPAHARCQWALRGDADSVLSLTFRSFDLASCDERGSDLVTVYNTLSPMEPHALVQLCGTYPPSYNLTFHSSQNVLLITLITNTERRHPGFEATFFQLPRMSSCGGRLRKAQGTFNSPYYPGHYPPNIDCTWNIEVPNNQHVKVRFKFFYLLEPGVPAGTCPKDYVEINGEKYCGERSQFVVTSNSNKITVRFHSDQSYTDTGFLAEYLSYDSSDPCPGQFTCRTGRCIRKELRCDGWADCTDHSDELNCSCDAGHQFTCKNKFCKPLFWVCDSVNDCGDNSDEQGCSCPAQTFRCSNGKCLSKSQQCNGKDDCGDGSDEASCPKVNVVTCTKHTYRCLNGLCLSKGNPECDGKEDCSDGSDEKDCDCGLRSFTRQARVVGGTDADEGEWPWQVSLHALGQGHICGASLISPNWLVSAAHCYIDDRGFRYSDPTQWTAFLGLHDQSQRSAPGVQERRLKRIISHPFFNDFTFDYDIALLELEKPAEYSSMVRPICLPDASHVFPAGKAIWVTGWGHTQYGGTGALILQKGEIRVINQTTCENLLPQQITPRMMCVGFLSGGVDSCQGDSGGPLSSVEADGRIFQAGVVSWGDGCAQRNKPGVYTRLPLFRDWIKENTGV
Method: as §1, §2

[3] = tested on: hepsin; conditions: cited from earlier work

Row | Compound | Ki [1] [nM] | Matriptase/ Hepsin (hepsin selectivity, ratio of Ki values) [1] | Ki [2] [nM] | hepsin selectivity (ratio of Ki values for matriptase and hepsin), previous reported value [3] | Ki ([3]; read-out: Ki hepsin, previous reported value) [nM]
1 | CC(C)C[C@H](NC(=O)CCc1cn(CCOCCOCCF)nn1)C(=O)NC(CCCNC(=N)N)C(=O)c1nccs1 (stereo partly drawn) [Ligand 1A, (2S)-2-(3-(1-(2-(2-(2-Fluoroethoxy)ethoxy)ethyl)-1H-1,2,3-triazol-4-yl)propanamido)-N-(5-guanidino-1-oxo-1-(thiazol-2-yl)pentan-2-yl)-4-methylpentanamide] | 0.9 ± 0.1 | 60.6 | 54.5 ± 4.9 | – | –
2 | CC(C)C[C@H](NC(=O)CCc1cn(CCOCCOCCF)nn1)C(=O)NC(CCCNC(=N)N)C(=O)c1nccs1 (stereo partly drawn) [Ligand 1B, (2S)-2-(3-(1-(2-(2-(2-Fluoroethoxy)ethoxy)ethyl)-1H-1,2,3-triazol-4-yl)propanamido)-N-(5-guanidino-1-oxo-1-(thiazol-2-yl)pentan-2-yl)-4-methylpentanamide] | 0.5 ± 0.1 | 40.0 | 20 ± 0.6 | – | –
3 | ^natCu-DOTA-conjugated 1-amino-N-(1-((5-guanidino-1-oxo-1-(thiazol-2-yl)pentan-2-yl)amino)-4-methyl-1-oxopentan-2-yl)-3,6,9,12-tetraoxapentadecan-15-amide [Ligand 3A] | 15 ± 0.6 | 16.6 | 249 ± 12.3 | – | –
4 | ^natGa-DOTA-conjugated 1-amino-N-(1-((5-guanidino-1-oxo-1-(thiazol-2-yl)pentan-2-yl)amino)-4-methyl-1-oxopentan-2-yl)-3,6,9,12-tetraoxapentadecan-15-amide [Ligand 2B] | 5.7 ± 0.2 | 12.0 | 68.2 ± 2.4 | – | –

More lines, in order of falling Ki [1], values ahead:

Row | Ki [1] [nM] | Matriptase/ Hepsin (hepsin selectivity, ratio of Ki values) [1] | Ki [2] [nM] | Compound | hepsin selectivity (ratio of Ki values for matriptase and hepsin), previous reported value [3] | Ki ([3]; read-out: Ki hepsin, previous reported value) [nM]
5 | 14.3 ± 1.2 | 11.6 | 166 ± 8.2 | ^natGa-DOTA-conjugated 1-amino-N-(1-((5-guanidino-1-oxo-1-(thiazol-2-yl)pentan-2-yl)amino)-4-methyl-1-oxopentan-2-yl)-3,6,9,12-tetraoxapentadecan-15-amide [Ligand 2A] | – | –
6 | 7.8 ± 2.8 | 7.2 | 56.5 ± 2.7 | CC(=O)N[C@@H](CC(C)C)C(=O)NC(CCCNC(=N)N)C(=O)c1nccs1 (some centres unmarked) [Ac–Leu–Arg–kt, reference compound] | 14.9 | 22.4 ± 0.5
7 | 5.1 ± 0.3 | 23.5 | 120 ± 3.5 | ^natCu-DOTA-conjugated 1-amino-N-(1-((5-guanidino-1-oxo-1-(thiazol-2-yl)pentan-2-yl)amino)-4-methyl-1-oxopentan-2-yl)-3,6,9,12-tetraoxapentadecan-15-amide [Ligand 3B] | – | –
